{"source": "patent US8936787B2", "about": "“Peptides promoting lipid efflux” (The United States of America as represented by the …, priority 2008, dated 2015)", "key": {"[1]": {"system": "HeLa cells stably transfected with human ABCA1 cDNA (ABCA1 cells)", "assay": "Cholesterol and phospholipid efflux from ABCA1 cells", "assay_type": "cell-based", "settings": "for cholesterol efflux from ABCA1 cells to detergent: sublytic concentration (taurodeoxycholate 0.02%, 1 hour)", "procedure": "(§1) Percentage efflux was calculated after subtracting the radioactive counts in the blank media (αMEM plus 1 mg/ml of BSA), and expressed as the percent of total radioactive counts removed from the cells during the efflux period.\n(§2) Cell fixation was performed by a 10 minute treatment with 3% paraformaldehyde in phosphate buffered saline (PBS), followed by three washes with blank media. Lactate dehydrogenase (LDH) release from cells into the media was measured enzymatically (Roche Diagnostics, Indianapolis, Ind.) and expressed, after subtraction of LDH released into blank media, as the percentage of total cell LDH. Total cell LDH was determined after cell solubilization with 1% Triton X-100."}, "control cells": {"system": "control cells", "assay": "LDH release from control cells", "assay_type": "cell-based", "settings": "40 μg/ml for 18 hours", "procedure": "as §2\n(§3) The microsolubilization of the plasma membrane of cells could, therefore, be potentially cytotoxic, but no morphologic effect was observed on the cells after incubation with the peptides or apoA-I, during the efflux experiments. Incubation of the cells with L-37pA and D-37pA at the maximum concentration and time used for the efflux studies (40 μg/ml for 18 hours) did, however, consistently result in the release of a small amount of LDH from both cell lines (control cells: L-37pA (6.1%±0.2), D-37pA (6.6%±0.1); ABCA1 cells: L-37pA (4.3%±0.04), D-37pA (5.7%±0.1))."}, "ABCA1 cells [2]": {"system": "ABCA1 cells", "assay": "LDH release from ABCA1 cells", "assay_type": "cell-based, human", "settings": "40 μg/ml for 18 hours", "procedure": "as §2, §3"}, "[3]": {"system": "HeLa cells transfected with only a hygromycin-resistant control plasmid (control cells)", "assay": "Cholesterol and phospholipid efflux from control cells", "assay_type": "cell-based", "settings": "for lipid (cholesterol and phospholipid) efflux from control cells: 18 hours", "procedure": "as §1, §2"}, "red blood cells": {"system": "red blood cells", "assay": "Red blood cell hemolysis assay", "assay_type": "cell-based", "settings": "1 hour at 37° C., maximum dose tested", "procedure": "Red blood cells were incubated with the indicated concentration of the peptides for 1 hour at 37° C. Results are expressed as the mean of triplicates ±1 SD.\nApproximately 25% of the red blood cells were lysed after 1 hour at the maximum dose tested (FIG. 9). Overall, the modified peptides containing the Ala substitutions were less cytotoxic, and the degree of cytotoxicity closely correlated with the number of Ala substitutions."}, "Normal skin fibroblasts": {"system": "Normal skin fibroblasts", "assay": "Cholesterol efflux from normal skin fibroblasts", "assay_type": "cell-based", "settings": "10 μg/ml, 18 hour", "procedure": "(§4) FIG. 5 is a graph illustrating ABCA1-independent efflux of cholesterol from Tangier disease fibroblasts. Normal skin fibroblasts (open bars) and Tangier disease skin fibroblasts (solid bars) were examined for their ability to efflux cholesterol over an 18 hour period when treated with 10 μg/ml apoA-I (A), 10 μg/ml L-37pA (L), and 10 μg/ml D-37pA (D). Results are expressed as the mean of triplicates ±1 SD.\n(§5) In order to confirm that the residual lipid efflux from the control cells to L-37pA and D-37pA (see FIG. 1) was not due to a low level of endogenous ABCA1, a Tangier disease fibroblast cell line with a truncated non-functional ABCA1 transporter (Remaley et al., Proc. Natl. Acad. Sci. USA 96:12685-12690, 1999) was evaluated for lipid efflux (FIG. 5)."}, "[4]": {"system": "Tangier disease fibroblast cell line with a truncated non-functional ABCA1 transporter", "assay": "Cholesterol efflux from Tangier disease fibroblasts", "assay_type": "cell-based", "settings": "10 μg/ml, 18 hour", "procedure": "as §4, §5"}, "ABCA1 cells [5]": {"system": "ABCA1 cells", "assay": "Competitive binding of radiolabeled L-37pA to ABCA1 cells", "parameters": "species or system human", "settings": "8 μM, the maximum concentration tested; 4° C.", "procedure": "FIGS. 7A-7B are a pair of graphs illustrating the competitive binding of L-37pA peptide to ABCA1 transfected cells and control cells. ABCA1 cells (FIG. 7A) and control cells (FIG. 7B) were incubated for 3 hours at 4° C. with the indicated concentration of the competitor proteins [L-37pA (triangle), D-37pA (open square), apoA-I (closed circle), L2D-37pA (star), and L3D-37pA (open circle)] and were then washed and incubated for 1 hour at 4° C. with 1 μg/ml of radiolabeled L-37pA peptide. Results are expressed as the mean of triplicates ±1 SD.\nThe L-37pA peptide was labeled with ^125I using iodine monochloride. Confluent cells grown on 12-well plates were incubated for 3 hours at 4° C. with the indicated concentration of the unlabeled competitor peptide in αMEM media plus 10 mg/ml of BSA (FIG. 7). […] Cells were washed three times, and cell bound counts were determined after solubilization with 0.1 N NaOH.\nA two-step sequential competitive binding assay was performed in order to prevent any potentially interfering interaction of the radiolabeled peptide with the competitor proteins (Mendez et al., J. Clin. Invest. 94:1698-1705, 1994). The cells were first incubated with the competitor proteins for 3 hours, washed, and then the cell binding of the radiolabeled L-37 peptide was measured. […]"}, "[6]": {"settings": "10 μg/ml, 30 hour efflux period"}}, "note": "Entries after “also recorded” stand apart in the source; their conditions may differ. Square brackets hold non-standard residues; d marks the D form. Ends that are not written are not given here. Peptide text beside a SMILES is read from it.", "data": [{"molecule": "C[C@H](CCC(=O)NCCC[N+](C)(C)CCCS(=O)(=O)[O-])[C@H]1CC[C@H]2[C@@H]3[C@H](O)C[C@@H]4C[C@H](O)CC[C@]4(C)[C@H]3C[C@H](O)[C@]12C", "note": "[CHAPS, reference compound]", "values": [{"measurement": "cholesterol efflux from ABCA1 cells to detergent", "setting": "[1]", "result": "Nearly identical results"}]}, {"molecule": "CC(C)C[C@@H](NC(=O)[C@@H](Cc1c[nH]c2ccccc12)NC(=O)[C@H](N)CC(=O)O)C(=O)N[C@H](CCCCN)C(=O)N[C@H](C)C(=O)N[C@H](Cc1ccccc1)C(=O)N[C@H](Cc1ccc(O)cc1)C(=O)N[C@H](CC(=O)O)C(=O)N[C@H](CCCCN)C(=O)N[C@@H](C(=O)N[C@H](C)C(=O)N[C@H](CCC(=O)O)C(=O)N[C@H](CCCCN)C(=O)N[C@H](CC(C)C)C(=O)N[C@H](CCCCN)C(=O)N[C@H](CCC(=O)O)C(=O)N[C@H](C)C(=O)N[C@H](Cc1ccccc1)C(=O)N1CCC[C@@H]1C(=O)N[C@H](CC(=O)O)C(=O)N[C@H](Cc1c[nH]c2ccccc12)C(=O)N[C@H](CC(C)C)C(=O)N[C@H](CCCCN)C(=O)N[C@H](C)C(=O)N[C@H](Cc1ccccc1)C(=O)N[C@H](Cc1ccc(O)cc1)C(=O)N[C@H](CC(=O)O)C(=O)N[C@H](CCCCN)C(=O)N[C@@H](C(=O)N[C@H](C)C(=O)N[C@H](CCC(=O)O)C(=O)N[C@H](CCCCN)C(=O)N[C@H](CC(C)C)C(=O)N[C@H](CCCCN)C(=O)N[C@H](CCC(=O)O)C(=O)N[C@H](C)C(=O)N[C@H](Cc1ccccc1)C(=O)O)C(C)C)C(C)C", "note": "[D-37pA] (H-[dD][dW][dL][dK][dA][dF][dY][dD][dK][dV][dA][dE][dK][dL][dK][dE][dA][dF][dP][dD][dW][dL][dK][dA][dF][dY][dD][dK][dV][dA][dE][dK][dL][dK][dE][dA][dF]-OH; N-terminus and C-terminus assumed)", "values": [{"measurement": "release of LDH from control cells, percentage of total cell LDH", "setting": "control cells", "result": "6.6%±0.1"}, {"measurement": "release of LDH from ABCA1 cells, percentage of total cell LDH", "setting": "ABCA1 cells [2]", "result": "5.7%±0.1"}]}, {"molecule": "C[C@H](CCC(=O)NCCS(=O)(=O)O)[C@H]1CC[C@H]2[C@@H]3CC[C@@H]4C[C@H](O)CC[C@]4(C)[C@H]3C[C@H](O)[C@]12C", "note": "[taurodeoxycholate, reference compound]", "values": [{"measurement": "cholesterol efflux from ABCA1 cells to detergent", "setting": "[1]", "result": "small amount of cholesterol efflux"}, {"measurement": "cholesterol efflux from control cells to detergent", "setting": "[3]; taurodeoxycholate 0.02%, 1 hour", "result": "Approximately the same amount"}]}, {"molecule": "DWLKAFYDKVAEKLKEAFPDWAKAAYDKAAEKAKEAA [5A]", "values": [{"measurement": "red blood cells lysed (hemolysis)", "setting": "red blood cells", "result": "no appreciable hemolysis"}]}, {"molecule": "DWLKAFYDKVAEKLKEAFPDWLKAAYDKAAEKAKEAA [4A]", "values": [{"measurement": "red blood cells lysed (hemolysis)", "setting": "red blood cells", "result": "no appreciable hemolysis"}]}, {"molecule": "DWLKAFYDKVAEKLKEAFPDWLKAAYDKVAEKAKEAA [3A]", "values": [{"measurement": "red blood cells lysed (hemolysis)", "setting": "red blood cells", "result": "moderate degree of hemolysis"}]}, {"molecule": "DWLKAFYDKVAEKLKEAFPDWLKAFYDKVA EKLKEAF [37pA, reference compound]", "values": [{"measurement": "lipid (cholesterol and phospholipid) efflux from ABCA1 cells", "setting": "[1]; 18 hours", "result": "promoted ABCA1-mediated cholesterol efflux"}, {"measurement": "lipid (cholesterol and phospholipid) efflux from control cells", "setting": "[3]", "result": "also able to mediate cholesterol efflux"}]}, {"molecule": "DWLKAFYDKVAEKLKEAFPDWLKAFYDKVAEKAKEAA [2A]", "values": [{"measurement": "red blood cells lysed (hemolysis)", "setting": "red blood cells", "result": "moderate degree of hemolysis"}]}, {"molecule": "DWLKAFYDKVAEKLKEAFPDWLKAFYDKVAEKAKEAF [1A]", "values": [{"measurement": "red blood cells lysed (hemolysis)", "setting": "red blood cells", "result": "moderate degree of hemolysis"}]}, {"molecule": "DWLKAFYDKVAEKLKEAFPDWLKAFYDKVAEKLKEAF [L-37pA]", "values": [{"measurement": "release of LDH from control cells, percentage of total cell LDH", "setting": "control cells", "result": "6.1%±0.2"}, {"measurement": "release of LDH from ABCA1 cells, percentage of total cell LDH", "setting": "ABCA1 cells [2]", "result": "4.3%±0.04"}]}, {"molecule": "NP-40 [reference compound]", "values": [{"measurement": "cholesterol efflux from ABCA1 cells to detergent", "setting": "[1]", "result": "Nearly identical results"}]}, {"molecule": "RMRITERDDFRGQMSEITDDCPSLQDRFHLTEVHSLRVLEGS (Gamma crystalline peptide.) [contains two non-amphipathic alpha helices, reference compound]", "values": [{"measurement": "lipid (cholesterol and phospholipid) efflux from ABCA1 cells", "setting": "[1]; 18 hours", "result": "completely ineffective"}, {"measurement": "lipid (cholesterol and phospholipid) efflux from control cells", "setting": "[3]", "result": "completely ineffective"}]}, {"molecule": "apoA-I: apolipoprotein A-I, the predominant protein constituent of HDL", "values": [{"measurement": "cholesterol efflux from ABCA1 cells after fixation with paraformaldehyde", "setting": "[1]; 10 μg/ml, 18 hours, 3% paraformaldehyde", "result": "completely blocked"}, {"measurement": "time at which cholesterol efflux from ABCA1 cells was first detectable", "setting": "[1]; [6]", "result": 2, "unit": "h"}, {"measurement": "lipid (cholesterol and phospholipid) efflux from ABCA1 cells", "setting": "[1]; 18 hours", "result": "do so after transfection with ABCA1"}, {"measurement": "protein concentration at which lipid efflux began to show saturation", "setting": "[1]; 18 hours", "result": "~10", "unit": "µg/mL"}, {"measurement": "molar concentration at which lipid efflux began to show saturation", "setting": "[1]; corresponds to 10 μg/ml", "result": 0.36, "unit": "µM"}, {"measurement": "cholesterol efflux from control cells over the time course", "setting": "[3]; [6]", "result": "no significant increase above background"}, {"measurement": "lipid (cholesterol and phospholipid) efflux from control cells", "setting": "[3]", "result": "do not efflux significant amounts; also recorded: unable"}, {"measurement": "cholesterol efflux from normal fibroblasts", "setting": "Normal skin fibroblasts", "result": "effluxed cholesterol"}, {"measurement": "cholesterol efflux from Tangier disease fibroblasts", "setting": "[4]", "result": "did not efflux significant amounts"}, {"measurement": "binding of labeled L-37pA to ABCA1 cells blocked by competitor", "setting": "ABCA1 cells [5]", "result": "approximately 30%"}]}]}
